Columns and labels:
[1] = tested on: murine B cell lymphoma cell line (A20;ATCC#TIB-208); test: Tritiated thymidine incorporation (growth rate) of cultured lymphoma cells; assay type: cell-based; conditions: for Mean, cpm (tritiated thymidine count, growth rate): 12 hours, triplicates
Experimental: The effect of methylglyoxal concentration on the growth rate of cultured lymphoma cells is shown below. The cells used were murine B cell lymphoma cell line (A20;ATCC#TIB-208). Cells labeled A20 were untreated cells that were passed through their regular media. A20 Methylglyoxal Reversed cells had undergone 3 passages in media containing 1 mM methylglyoxal followed by 3 passages in regular media before use. A20 Methylglyoxal P6 cells had 6 passages in media containing 1 mM methylglyoxal before use. At the start of the experiment harvested cells were incubated with DNA precursor tritiated thymidine in media containing the various concentrations of methylglyoxal for 12 hours, then harvested and counted in a scintillation counter. The count data in cpm reflect the growth rate of the cells in the presence of the various methylglyoxal concentrations. Relevant data from this in vitro study are presented here.

[2] = oral administration; cited from earlier work
[3] = mice, single oral dose of 200 mg; cited from earlier work
cancer cells = conditions: cited from earlier work
[4] = (IV) administration at 3.0 grams/m^2; cited from earlier work

CC(=O)C=O [Methylglyoxal, methylglyoxal]
Survival of lymphoma cells on passage in methylglyoxal ([1]; 1 mM methylglyoxal in media, 3 or 6 passages): able to survive
Effect on growth rate ([1]; 1.2 mM methylglyoxal, all three A20 cell groups): severely slowed their growth rate
Growth rate relative to the controls ([1]; 2.5 mM and 5.0 mM methylglyoxal, all three A20 cell groups): less than 0.1 % of the controls
Mean, cpm (tritiated thymidine count, growth rate) ([1]; A20 1 mM Methylglyoxal P6 cells, 0.3 mM methylglyoxal): 36,001 cpm
Mean, cpm (tritiated thymidine count, growth rate) ([1]; A20 1 mM Methylglyoxal P6 cells, 0.6 mM methylglyoxal): 35,157 cpm
Mean, cpm (tritiated thymidine count, growth rate) ([1]; A20 1 mM Methylglyoxal P6 cells, 1.2 mM methylglyoxal): 1,470 cpm
Mean, cpm (tritiated thymidine count, growth rate) ([1]; A20 1 mM Methylglyoxal P6 cells, 2.5 mM methylglyoxal): 24 cpm
Mean, cpm (tritiated thymidine count, growth rate) ([1]; A20 1 mM Methylglyoxal P6 cells, 5.0 mM methylglyoxal): 9 cpm
Mean, cpm (tritiated thymidine count, growth rate) ([1]; A20 1 mM Methylglyoxal Reversed P3 cells, 0.3 mM methylglyoxal): 34,220 cpm
Mean, cpm (tritiated thymidine count, growth rate) ([1]; A20 1 mM Methylglyoxal Reversed P3 cells, 0.6 mM methylglyoxal): 33,927 cpm
Mean, cpm (tritiated thymidine count, growth rate) ([1]; A20 1 mM Methylglyoxal Reversed P3 cells, 1.2 mM methylglyoxal): 587 cpm
Mean, cpm (tritiated thymidine count, growth rate) ([1]; A20 1 mM Methylglyoxal Reversed P3 cells, 2.5 mM methylglyoxal): 7 cpm
Mean, cpm (tritiated thymidine count, growth rate) ([1]; A20 1 mM Methylglyoxal Reversed P3 cells, 5.0 mM methylglyoxal): 12 cpm
Development of resistance to methylglyoxal ([1]; A20 Methylglyoxal Reversal and A20 Methylglyoxal P6 cells, passaged in 1 mM methylglyoxal): no evidence
Mean, cpm (tritiated thymidine count, growth rate) ([1]; A20 untreated cells, 0.3 mM methylglyoxal): 36,289 cpm
Mean, cpm (tritiated thymidine count, growth rate) ([1]; A20 untreated cells, 0.6 mM methylglyoxal): 30,119 cpm
Mean, cpm (tritiated thymidine count, growth rate) ([1]; A20 untreated cells, 1.2 mM methylglyoxal): 275 cpm
Mean, cpm (tritiated thymidine count, growth rate) ([1]; A20 untreated cells, 2.5 mM methylglyoxal): 6 cpm
Mean, cpm (tritiated thymidine count, growth rate) ([1]; A20 untreated cells, 5.0 mM methylglyoxal): 8 cpm
Oral uptake [2]: less than 5%
Time of peak blood concentration [3]: 4 h
Levels causing protein synthesis inhibition, arrested cell growth and induced apoptosis (cancer cells; cancer cells, normal cells were not affected): 1 to 3 mM
Concentration required to achieve 95-100% cell death (cancer cells; cultured cancer cells or mice inoculated intraperitoneally with cancer cells): ~3 mM

CCCCS(=N)(=O)CCC(N)C(=O)O (stereo not drawn) [buthioinine sulfoximine, buthionine sulfoximine]
Deleterious effects [4]: no deleterious effects
